Reference: ChEMBL document CHEMBL1201862, “PubChem BioAssay data set” (2004)
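Growth conditions: 96-well plates. Treatment: test compound, 48 hours, 5 concentrations. Analysis: linear interpolation between bracketing concentrations; unreached endpoints set to highest concentration. The concentration for 50% growth inhibition is given as GI50.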 Calls of active or inactive are those of the source. No stated cut-off is given here; in the data, active = GI50 up to about 1.1 µM and inactive = higher.

Experiments:
Assay in all cases: NCI anticancer screen, dose series, 48 h
TK-10 = system: TK-10
SR = system: SR
SK-MEL-2 = system: SK-MEL-2
MOLT-4 = system: MOLT-4
NCI-H226 = system: NCI-H226
SF-268 = system: SF-268
HCT-116 = system: HCT-116
OVCAR-4 = system: OVCAR-4
OVCAR-5 = system: OVCAR-5
M14 = system: M14
NCI/ADR-RES = system: NCI/ADR-RES
OVCAR-8 = system: OVCAR-8
ACHN = system: ACHN
SK-MEL-28 = system: SK-MEL-28
MDA-N = system: MDA-N
A549 = system: A549
UACC-257 = system: UACC-257
RPMI-8226 = system: RPMI-8226
COLO 205 = system: COLO 205
MDA-MB-435 = system: MDA-MB-435
SW-620 = system: SW-620
Malme-3M = system: Malme-3M
UO-31 = system: UO-31
HCT-15 = system: HCT-15
Hs-578T = system: Hs-578T
U-251 = system: U-251
SN12C = system: SN12C
SNB-19 = system: SNB-19
CAKI-1 = system: CAKI-1
T47D = system: T47D
K562 = system: K562
SF-539 = system: SF-539
SF-295 = system: SF-295
NCI-H460 = system: NCI-H460
SK-MEL-5 = system: SK-MEL-5
A498 = system: A498
KM12 = system: KM12
HOP-62 = system: HOP-62
SK-OV-3 = system: SK-OV-3
NCI-H23 = system: NCI-H23
EKVX = system: EKVX
MCF7 = system: MCF7
UACC-62 = system: UACC-62
786-0 = system: 786-0
LOX IMVI = system: LOX IMVI
IGROV-1 = system: IGROV-1
OVCAR-3 = system: OVCAR-3
BT-549 = system: BT-549
DU-145 = system: DU-145
NCI-H522 = system: NCI-H522
HOP-92 = system: HOP-92
HL-60 = system: HL-60
MDA-MB-231 = system: MDA-MB-231
HT-29 = system: HT-29
PC-3 = system: PC-3
SNB-75 = system: SNB-75
RXF 393 = system: RXF 393
CCRF-CEM = system: CCRF-CEM

SMILES: CC(CS(=O)(=O)Cc1ccccc1)C(N)=O (stereo not drawn)
- GI50 (TK-10): > 100 µM (inactive)
- GI50 (SR): > 100 µM (inactive)
- GI50 (SK-MEL-2): > 100 µM (inactive)
- GI50 (MOLT-4): > 100 µM (inactive)
- GI50 (NCI-H226): > 100 µM (inactive)
- GI50 (SF-268): > 100 µM (inactive)
- GI50 (HCT-116): > 100 µM (inactive)
- GI50 (OVCAR-4): > 100 µM (inactive)
- GI50 (OVCAR-5): > 100 µM (inactive)
- GI50 (M14): > 100 µM (inactive)
- GI50 (NCI/ADR-RES): > 100 µM (inactive)
- GI50 (OVCAR-8): > 100 µM (inactive)
- GI50 (ACHN): > 100 µM (inactive)
- GI50 (SK-MEL-28): > 100 µM (inactive)
- GI50 (MDA-N): > 100 µM (inactive)
- GI50 (A549): > 100 µM (inactive)
- GI50 (UACC-257): > 100 µM (inactive)
- GI50 (RPMI-8226): > 100 µM (inactive)
- GI50 (COLO 205): > 100 µM (inactive)
- GI50 (MDA-MB-435): > 100 µM (inactive)
- GI50 (SW-620): > 100 µM (inactive)
- GI50 (Malme-3M): > 100 µM (inactive)
- GI50 (UO-31): > 100 µM (inactive)
- GI50 (HCT-15): > 100 µM
- GI50 (Hs-578T): > 100 µM (inactive)
- GI50 (U-251): > 100 µM (inactive)
- GI50 (SN12C): > 100 µM (inactive)
- GI50 (SNB-19): > 100 µM (inactive)
- GI50 (CAKI-1): > 100 µM (inactive)
- GI50 (T47D): > 100 µM (inactive)
- GI50 (K562): > 100 µM (inactive)
- GI50 (SF-539): > 100 µM (inactive)
- GI50 (SF-295): > 100 µM (inactive)
- GI50 (NCI-H460): > 100 µM (inactive)
- GI50 (SK-MEL-5): > 100 µM (inactive)
- GI50 (A498): > 100 µM (inactive)
- GI50 (KM12): > 100 µM (inactive)
- GI50 (HOP-62): > 100 µM (inactive)
- GI50 (SK-OV-3): > 100 µM (inactive)
- GI50 (NCI-H23): > 100 µM (inactive)
- GI50 (EKVX): > 100 µM (inactive)
- GI50 (MCF7): > 100 µM (inactive)
- GI50 (UACC-62): > 100 µM (inactive)
- GI50 (786-0): > 100 µM (inactive)
- GI50 (LOX IMVI): > 100 µM (inactive)
- GI50 (IGROV-1): > 100 µM (inactive)
- GI50 (OVCAR-3): > 100 µM (inactive)
- GI50 (BT-549): > 100 µM (inactive)
- GI50 (DU-145): > 100 µM (inactive)
- GI50 (NCI-H522): > 100 µM (inactive)
- GI50 (HOP-92): > 100 µM (inactive)
- GI50 (HL-60): > 100 µM (inactive)
- GI50 (MDA-MB-231): > 100 µM (inactive)
- GI50 (HT-29): > 100 µM (inactive)
- GI50 (PC-3): > 100 µM (inactive)

SMILES: NC(=S)NNCC(=O)CC(O)(C(F)(F)F)C(F)(F)Cl (stereo not drawn)
- GI50 (TK-10): > 100 µM (inactive)
- GI50 (SR): > 100 µM (inactive)
- GI50 (SK-MEL-2): > 100 µM (inactive)
- GI50 (MOLT-4): > 100 µM (inactive)
- GI50 (NCI-H226): > 100 µM (inactive)
- GI50 (HCT-116): > 100 µM (inactive)
- GI50 (OVCAR-4): > 100 µM (inactive)
- GI50 (OVCAR-5): > 100 µM (inactive)
- GI50 (M14): > 100 µM (inactive)
- GI50 (NCI/ADR-RES): > 100 µM (inactive)
- GI50 (OVCAR-8): > 100 µM (inactive)
- GI50 (ACHN): 54.5 µM (inactive)
- GI50 (SNB-75): 29.6 µM (inactive)
- GI50 (SK-MEL-28): > 100 µM (inactive)
- GI50 (MDA-N): > 100 µM (inactive)
- GI50 (A549): > 100 µM (inactive)
- GI50 (UACC-257): > 100 µM (inactive)
- GI50 (RPMI-8226): > 100 µM (inactive)
- GI50 (COLO 205): > 100 µM (inactive)
- GI50 (MDA-MB-435): > 100 µM (inactive)
- GI50 (SW-620): > 100 µM (inactive)
- GI50 (Malme-3M): > 100 µM (inactive)
- GI50 (UO-31): > 100 µM (inactive)
- GI50 (HCT-15): > 100 µM
- GI50 (Hs-578T): > 100 µM (inactive)
- GI50 (U-251): > 100 µM (inactive)
- GI50 (SNB-19): > 100 µM (inactive)
- GI50 (CAKI-1): > 100 µM (inactive)
- GI50 (RXF 393): 38.5 µM (inactive)
- GI50 (T47D): 64.7 µM (inactive)
- GI50 (K562): > 100 µM (inactive)
- GI50 (SF-539): > 100 µM (inactive)
- GI50 (CCRF-CEM): > 100 µM (inactive)
- GI50 (SF-295): > 100 µM (inactive)
- GI50 (NCI-H460): 63.2 µM (inactive)
- GI50 (SK-MEL-5): > 100 µM (inactive)
- GI50 (A498): > 100 µM (inactive)
- GI50 (KM12): > 100 µM (inactive)
- GI50 (SK-OV-3): > 100 µM (inactive)
- GI50 (NCI-H23): > 100 µM (inactive)
- GI50 (EKVX): > 100 µM (inactive)
- GI50 (MCF7): > 100 µM (inactive)
- GI50 (UACC-62): > 100 µM (inactive)
- GI50 (786-0): > 100 µM (inactive)
- GI50 (LOX IMVI): > 100 µM (inactive)
- GI50 (IGROV-1): > 100 µM (inactive)
- GI50 (OVCAR-3): > 100 µM (inactive)
- GI50 (BT-549): > 100 µM (inactive)
- GI50 (DU-145): > 100 µM (inactive)
- GI50 (NCI-H522): > 100 µM (inactive)
- GI50 (HOP-92): > 100 µM (inactive)
- GI50 (HL-60): 97.3 µM (inactive)
- GI50 (MDA-MB-231): > 100 µM (inactive)
- GI50 (HT-29): > 100 µM (inactive)
- GI50 (PC-3): > 100 µM (inactive)

SMILES: O=C(/C=C1\Nc2ncccc2N=C1CC(=O)c1ccccc1)c1ccccc1
- GI50 (TK-10): 35.6 µM (inactive)
- GI50 (SR): 4.66 µM (inactive)
- GI50 (SK-MEL-2): 12.6 µM (inactive)
- GI50 (MOLT-4): 3.4 µM (inactive)
- GI50 (SF-268): 2.53 µM (inactive)
- GI50 (OVCAR-4): 9.2 µM (inactive)
- GI50 (OVCAR-5): 23.5 µM (inactive)
- GI50 (M14): 7.35 µM (inactive)
- GI50 (NCI/ADR-RES): 4.56 µM (inactive)
- GI50 (OVCAR-8): 5.93 µM (inactive)
- GI50 (ACHN): 4.94 µM (inactive)
- GI50 (SNB-75): 20.4 µM (inactive)
- GI50 (SK-MEL-28): 32.3 µM (inactive)
- GI50 (MDA-N): 7.52 µM (inactive)
- GI50 (A549): 6.05 µM (inactive)
- GI50 (UACC-257): 65.6 µM (inactive)
- GI50 (RPMI-8226): 5.37 µM (inactive)
- GI50 (COLO 205): 4.97 µM (inactive)
- GI50 (MDA-MB-435): 5.93 µM (inactive)
- GI50 (SW-620): 5.52 µM (inactive)
- GI50 (Malme-3M): 37.4 µM (inactive)
- GI50 (UO-31): 5.47 µM (inactive)
- GI50 (HCT-15): 2 µM
- GI50 (Hs-578T): 15.6 µM (inactive)
- GI50 (U-251): 3.24 µM (inactive)
- GI50 (SN12C): 2.24 µM (inactive)
- GI50 (SNB-19): 7.69 µM (inactive)
- GI50 (CAKI-1): 2.06 µM (inactive)
- GI50 (T47D): 9.31 µM (inactive)
- GI50 (K562): 5.11 µM (inactive)
- GI50 (SF-539): 13.2 µM (inactive)
- GI50 (CCRF-CEM): 2.49 µM (inactive)
- GI50 (SF-295): 4.44 µM (inactive)
- GI50 (NCI-H460): 1.59 µM (inactive)
- GI50 (SK-MEL-5): 4.16 µM (inactive)
- GI50 (A498): 7.35 µM (inactive)
- GI50 (KM12): 6.43 µM (inactive)
- GI50 (HOP-62): 0.679 µM (active)
- GI50 (SK-OV-3): 12 µM (inactive)
- GI50 (NCI-H23): 23.1 µM (inactive)
- GI50 (MCF7): 3.61 µM (inactive)
- GI50 (UACC-62): 2.84 µM (inactive)
- GI50 (LOX IMVI): 5.12 µM (inactive)
- GI50 (IGROV-1): 2.72 µM (inactive)
- GI50 (OVCAR-3): 1.66 µM (inactive)
- GI50 (BT-549): 2.71 µM (inactive)
- GI50 (DU-145): 12.9 µM (inactive)
- GI50 (NCI-H522): 11 µM (inactive)
- GI50 (HOP-92): 3.52 µM (inactive)
- GI50 (HL-60): 13.5 µM (inactive)
- GI50 (MDA-MB-231): 10.6 µM (inactive)
- GI50 (HT-29): 6.89 µM (inactive)
- GI50 (PC-3): 10.1 µM (inactive)
